This is an account of results in ChEMBL document CHEMBL5038670, “Design, Synthesis, and Biological Evaluation of Apcin-Based CDC20 Inhibitors” (ACS Med Chem Lett, 2022).

Active and inactive are the calls of the source. The calls are words filed in the database; no cut-off is given here. A value given as a limit tells only on which side of the number the result lay.

The subject of test [1] is MDA-MB-231. The test is described as follows: Cytotoxicity against human TNBC MDA-MB-231 cells assessed as cell viability measured after 72 hrs. The test is classed as functional, cell-based. The settings on record: MDA-MB-231, 72 h.
For test [2], the system named is MDA-MB-468. Kind of test: Cytotoxicity against human TNBC MDA-MB-468 cells assessed as cell viability measured after 72 hrs. It counts as functional, cell-based. To be noted: MDA-MB-468, 72 h.
Test [3] relates to MDA-MB-468. The test is described as follows: Cytotoxicity against human TNBC MDA-MB-468 cells assessed as cell viability at 300 uM measured after 72 hrs relative to control. It counts as functional. The settings on record: for viability at 300 µM: read-out: Activity.
Test [4] has as its system MDA-MB-231. The test is described as follows: Cytotoxicity against human TNBC MDA-MB-231 cells assessed as cell viability at 300 uM measured after 72 hrs relative to control. To be noted: for viability at 300 µM: read-out: Activity. It counts as functional.
Test [5] has as its system MDA-MB-468. The test is described as follows: Effect on BimS expression in human TNBC MDA-MB-468 cells at 10 to 30 uM measured after 24 hrs by western blot analysis relative to control. The test is classed as functional, cell-based. The settings on record: dose 10-30 µM. (A western blot detects proteins with antibodies after separation by electrophoresis.)
The subject of test [6] is MDA-MB-468. The test is described as follows: Upregulation of cyclin B1 level in human TNBC MDA-MB-468 cells at 10 uM measured after 24 hrs by western blot analysis relative to control. The test is classed as functional, cell-based.
Test [7] has as its system MDA-MB-468. The test is described as follows: Antitumor activity against human MDA-MB-468 cells assessed as induction of cell death at 30 uM measured after 24 hour relative to control. The test is classed as functional, cell-based.
Test [8] deals with MDA-MB-468. Kind of test: Effect on BimEL expression in human TNBC MDA-MB-468 cells at 10 to 30 uM measured after 24 hrs by western blot analysis relative to control. The settings on record: dose 10-30 µM. The test is classed as functional, cell-based.
Test [9] relates to MDA-MB-468. Kind of test: Downregulation of CDC20 level in human TNBC MDA-MB-468 cells at 30 uM measured after 24 hrs by western blot analysis relative to control. The test is classed as functional, cell-based.
Test [10] deals with MDA-MB-468. The test is described as follows: Downregulation of cyclin B1 level in human TNBC MDA-MB-468 cells at 30 uM measured after 24 hrs by western blot analysis relative to control. The test is classed as functional, cell-based.
Test [11] concerns MDA-MB-468. Kind of test: Downregulation of CDC20 level in human TNBC MDA-MB-468 cells at 10 uM measured after 24 hrs by western blot analysis relative to control. The test is classed as functional, cell-based.
The test system of test [12] is MDA-MB-468. The test is described as follows: Effect on BimL expression in human TNBC MDA-MB-468 cells at 10 to 30 uM measured after 24 hrs by western blot analysis relative to control. The test is classed as functional, cell-based. To be noted: dose 10-30 µM.
Test [13] concerns MDA-MB-468. The test is described as follows: Downregulation of se-curin level in human TNBC MDA-MB-468 cells at 10 uM measured after 24 hrs by western blot analysis relative to control. It counts as functional, cell-based.
The subject of test [14] is MDA-MB-468. The test is described as follows: Downregulation of se-curin level in human TNBC MDA-MB-468 cells at 30 uM measured after 24 hrs by western blot analysis relative to control. It counts as functional, cell-based.
The species entered for test [15] is Sus scrofa. Kind of test: Inhibition of porcine brain tubulin polymerization at 10 uM measured for 60 mins by spectrophotometric method relative to control.
The subject of test [16] is MDA-MB-468. Kind of test: Upregulation of cyclin B1 level in human TNBC MDA-MB-468 cells at 80 uM measured after 24 hrs by western blot analysis relative to control. The test is classed as functional, cell-based.
The species entered for test [17] is Sus scrofa. The test is described as follows: Induction of porcine brain tubulin polymerization at 10 uM measured for 60 mins by spectrophotometric method relative to control. The test is classed as tissue-based.

Turning to `Cc1ncc([N+](=O)[O-])n1CCOC(=O)NC(Nc1nc2ccc(F)cc2s1)C(F)(F)Cl` (stereo unspecified), the values for the half-inhibitory concentration (IC50) in test [1] and in [2] were 80.7 µM and 73.7 µM, respectively.

For the compound `Cc1ncc([N+](=O)[O-])n1CCOC(=O)NC(Nc1nc2ccccc2[nH]1)C(F)(F)Cl` (stereo unspecified), the viability at 300 µM in [3] was 47%; in test [4], 70%.

For `Cc1sc(NC(NC(=O)OCCn2c([N+](=O)[O-])cnc2C)C(F)(Cl)Cl)nc1-c1ccc(OC(F)(F)F)cc1` (stereo unspecified), the Activity result in [5], in test [8] and in [12] was “Dose-Dependent Effect” throughout. The result in test [6], in test [7], in test [9], in test [10], in test [13] and in test [14] was Active. For the same compound, the values for the IC50 in test [1] and in test [2] were 10.8 µM and 13.2 µM, respectively. In addition, the outcome in test [11] was inactive.

Turning to `Cc1ncc([N+](=O)[O-])n1CCOC(=O)NC(Nc1nc2ccc(Cl)cc2s1)C(F)(F)Cl` (stereo unspecified), the IC50 (commonly the point on the concentration scale where inhibition reaches its midpoint) in test [1] turned out to be 44.5 µM; in [2] it was 42.2 µM.

On to `Cc1ncc([N+](=O)[O-])n1CCOC(=O)NC(Nc1nc2ccc(OC(F)(F)F)cc2s1)C(F)(F)Cl` (stereo unspecified), for which the IC50 in test [1] amounted to 21.2 µM; in test [2], 11.2 µM. Moreover, in test [15], the inhibition entry was “inactive”.

Turning to `Cc1ncc([N+](=O)[O-])n1CCOC(=O)NC(Nc1c(Cl)nc(N)nc1Cl)C(F)(F)Cl` (stereo unspecified), in [3], the viability at 300 µM worked out at 52%. Also, the result in [4] was inactive.

As to `Cc1ncc([N+](=O)[O-])n1CCOC(=O)NC(Nc1ncccn1)C(Cl)(Cl)Cl` (stereo unspecified), the IC50 in test [1] came out at 91.4 µM; in [2] it was 53.5 µM. For the same compound, in [16], the outcome was Active.

In the case of `COc1ccc(-c2csc(NC(NC(=O)OCCN3CCOCC3)C(F)(F)Cl)n2)cc1` (stereo unspecified), the 50% inhibitory concentration (IC50) turned out to be 52.6 µM in test [1] and 47.5 µM in test [2].

For the compound `Cc1ncc([N+](=O)[O-])n1CCOC(=O)NC(Nc1nc(-c2ccc(OC(F)(F)F)cc2)cs1)C(F)(F)Cl` (stereo unspecified), the IC50 in [1] worked out at 12 µM; in test [2] it was 23.3 µM.

For the compound `Cc1ncc([N+](=O)[O-])n1CCOC(=O)NC(N1CCOCC1)C(F)(F)Cl` (stereo unspecified), the result in test [3] and in [4] was inactive.

On to `Cc1ncc([N+](=O)[O-])n1CCOC(=O)NC(Nc1nc(-c2ccc(S(C)(=O)=O)cc2)cs1)C(F)(F)Cl` (stereo unspecified), for which the IC50 in test [1] is greater than 300 µM; in test [2] it was 103 µM.

Turning to `COC(=O)c1sc(NC(NC(=O)OCCn2c([N+](=O)[O-])cnc2C)C(F)(F)Cl)nc1-c1ccccc1` (stereo unspecified), the figures for the concentration for half-maximal inhibition (IC50) in test [1] and in test [2] were 42.1 µM and 23.5 µM, respectively.

Turning to `COc1ccc(-c2csc(NC(NC(=O)OCCn3c([N+](=O)[O-])cnc3C)C(F)(F)Cl)n2)cc1O` (stereo unspecified), the half-inhibitory concentration (IC50) in test [1] came to 224 µM; in test [2], 82.5 µM.

Regarding `Cc1ncc([N+](=O)[O-])n1CCOC(=O)NC(Nc1nc(-c2ccc(Cl)cc2Cl)cs1)C(F)(F)Cl` (stereo unspecified), the half-maximal inhibitory concentration (IC50) in test [1] came to 21.4 µM; in [2], 14.4 µM.

Take `Cc1sc(NC(NC(=O)OCCN2CCOCC2)C(F)(F)Cl)nc1-c1ccc(OC(F)(F)F)cc1` (stereo unspecified): the IC50 in test [1] was 14.2 µM; in test [2], 32.6 µM.

For `COc1ccc(-c2csc(NC(NC(=O)OCCn3c([N+](=O)[O-])cnc3C)C(F)(Cl)Cl)n2)cc1` (stereo unspecified), the IC50 in test [1] is 63.5 µM; in [2] it was 39.3 µM.

Turning to `Cc1ncc([N+](=O)[O-])n1CCOC(=O)NC(Nc1nc2ccc(C#N)cc2s1)C(F)(F)Cl` (stereo unspecified), the results for the 50% inhibitory concentration (IC50) in [1] and in test [2] were 80.8 µM and 116 µM, respectively.

For the compound `COC(=O)c1ccc(-c2csc(NC(NC(=O)OCCn3c([N+](=O)[O-])cnc3C)C(F)(F)Cl)n2)cc1` (stereo unspecified), the IC50 is 34.5 µM in test [1] and 18.7 µM in [2].

`CC(=O)Nc1ccc(-c2csc(NC(NC(=O)OCCn3c([N+](=O)[O-])cnc3C)C(F)(F)Cl)n2)cc1` (stereo unspecified): the half-inhibitory concentration (IC50) came to 75.7 µM in [1] and 66.5 µM in test [2].

For the compound `Cc1ncc([N+](=O)[O-])n1CCOC(=O)NC(Nc1ncc(C#N)cn1)C(F)(F)Cl` (stereo unspecified), in [3], the outcome was inactive.

Consider `Cc1ncc([N+](=O)[O-])n1CCOC(=O)NC(Nc1nc2c(F)cc(F)cc2s1)C(F)(F)Cl` (stereo unspecified), for which the 50% inhibitory concentration (IC50) worked out at 106 µM in test [1] and 101 µM in [2].

As to `Cc1sc(NC(NC(=O)OCCn2c([N+](=O)[O-])cnc2C)C(F)(F)Cl)nc1-c1ccc(Cl)cc1` (stereo unspecified), the concentration for half-maximal inhibition (IC50) is 12.6 µM in test [1] and 10.1 µM in [2]. Further, the inhibition entry in test [15] is “inactive”.

`COc1ccc(-c2csc(NC(NC(=O)OCCn3c([N+](=O)[O-])cnc3C)C(F)(F)Cl)n2)cc1` (stereo unspecified): the concentration for half-maximal inhibition (IC50) in [1] came out at 63.1 µM; in test [2], 49.2 µM.

On to `Cc1ncc([N+](=O)[O-])n1CCOC(=O)NC(Nc1ncccn1)C(F)(F)Cl` (stereo unspecified), for which the viability at 300 µM in test [3] is 40%; in test [4], 52%.

For the compound `Cc1ncc([N+](=O)[O-])n1CCOC(=O)NC(Nc1nc2ccc([N+](=O)[O-])cc2s1)C(F)(F)Cl` (stereo unspecified), the 50% inhibitory concentration (IC50) in test [1] is 37.8 µM; in test [2] it was 40.1 µM.

For the compound `CC(=O)O[C@H]1C(=O)[C@@]2(C)[C@H]([C@H](OC(=O)c3ccccc3)[C@]3(O)C[C@H](OC(=O)[C@H](O)[C@@H](NC(=O)c4ccccc4)c4ccccc4)C(C)=C1C3(C)C)[C@]1(OC(C)=O)CO[C@@H]1C[C@@H]2O`, the inhibition entry in test [17] is “Active”.

Turning to `Cc1ncc([N+](=O)[O-])n1CCOC(=O)NC(Nc1nc2ccccc2s1)C(F)(F)Cl` (stereo unspecified), the viability at 300 µM in [3] came out at 21%; in test [4], 66%.

Regarding `Cc1ncc([N+](=O)[O-])n1CCOC(=O)NC(Nc1nc(-c2ccc(C#N)c(F)c2)cs1)C(F)(F)Cl` (stereo unspecified), the IC50 in test [1] was 24.1 µM; in test [2], 14.4 µM. In [15], the inhibition result is “inactive”.

Regarding `Cc1ncc([N+](=O)[O-])n1CCOC(=O)NC(Nc1nc2ccc(S(C)(=O)=O)cc2s1)C(F)(F)Cl` (stereo unspecified), the 50% inhibitory concentration (IC50) in test [1] is 230 µM; in test [2], greater than 300 µM.

With `Cc1sc(NC(NC(=O)OCCn2c([N+](=O)[O-])cnc2C)C(F)(F)Cl)nc1-c1ccc(OC(F)(F)F)cc1` (stereo unspecified), the Activity entry in test [5], in test [8] and in test [12] was “Dose-Dependent Effect” in each case. In addition, the outcome in test [7], in [9], in test [10], in [11] and in test [14] was Active. In addition, the IC50 is 12 µM in test [1] and 11.4 µM in test [2]. Further, the inhibition entry in [15] was “inactive”.
